The text below walks through data of US8227604B2, “Hybrid 2-aminotetralin and aryl-substituted piperazine compounds and their use in altering CNS activity” (Wayne State University, priority 2001, dated 2012).

One test has as its target T1, D1 receptor (Homo sapiens, UniProt P21728).
T1 construct: expressed in transfected cells; host or cells: LHD1 cells
Description: Binding affinity at cloned human D1 receptor, [3H]SCH23390 (LHD1 cells). As for the experimental part:
LHD1 cells (human receptor) are grown and prepared as described for the HA7 cells as described hereafter. The final pellet is resuspended at 5 mg protein/80 ml in 50 mM Tris-HCl containing 120 mM of NaCl, 5 mM of KCl, 2 mM of CaCl2, and 1 mM of MgCl2, pH 7.4. To wells containing 100 μl of test drug or buffer and […] of [^3H]SCH 23390 (0.18 nM final conc.), is added 0.8 ml of cell homogenate (0.05 mg protein/well), and the plates are incubated at […] for 60 min. Nonspecific binding is determined with 1 μM of SCH 23390.

For test [1], the target named is T2, D2 receptor (Homo sapiens, UniProt P14416).
T2 construct: expressed in transfected cells
The test can be described thus: Binding affinity at cloned human D2 receptor, [3H]YM-09151-2 (CHOp-D2 cells). As for the experimental part: (§1) CHOp-cells (human receptors) are grown to confluence in a minimum essential medium (α MEM) containing 10% fetal calf serum, 0.05% pen-strep, and 600 μg/ml of G418. The cells are scraped from the 100 by 20 mm plates and centrifuged at 500. g for 5 min. The pellet is homogenized by polytron in 50 mM Tris-HCl, pH 7.7, and centrifuged at 27,000·G for 12 min. The pellet is resuspended in 50 mM Tris, D2 at 5 mg protein/ml, D3 at 1 mg protein/ml, and stored at −70° C. in 1-ml aliquots.
(§2) On the day of the experiment, CHOp-D2 or CHOp-D3 cells are thawed, resuspended in 50 mM Tris, and centrifuged at 27,000·G for 12 min. The pellet is then resuspended at 5 mg protein/80 ml (D2) and 1 mg protein/80 ml (D3) in 50 mM Tris containing 120 mM of NaCl, 5 mM of KCl, 1.5 mM of CaCl2, 4 mM of MgCl2, and 1 mM of EDTA, pH 7.4. […] Nonspecific binding is determined with 1 mM of chlorpromazine. The plates are incubated at 25° C. for 60 min before filtration and counted as usual. The filters are soaked in 0.1% PEI before filtering.

In a further test the target is T3, 5HT2A receptor (Homo sapiens, UniProt P28223).
T3 construct: expressed in transfected cells
Description: Binding affinity at cloned human 5HT2A receptor, [3H]Ketanserin.

Another test concerns the target T4, 5HT2C receptor (Homo sapiens, UniProt P28335).
T4 construct: expressed in transfected cells
T4 sequence (P28335 33-458): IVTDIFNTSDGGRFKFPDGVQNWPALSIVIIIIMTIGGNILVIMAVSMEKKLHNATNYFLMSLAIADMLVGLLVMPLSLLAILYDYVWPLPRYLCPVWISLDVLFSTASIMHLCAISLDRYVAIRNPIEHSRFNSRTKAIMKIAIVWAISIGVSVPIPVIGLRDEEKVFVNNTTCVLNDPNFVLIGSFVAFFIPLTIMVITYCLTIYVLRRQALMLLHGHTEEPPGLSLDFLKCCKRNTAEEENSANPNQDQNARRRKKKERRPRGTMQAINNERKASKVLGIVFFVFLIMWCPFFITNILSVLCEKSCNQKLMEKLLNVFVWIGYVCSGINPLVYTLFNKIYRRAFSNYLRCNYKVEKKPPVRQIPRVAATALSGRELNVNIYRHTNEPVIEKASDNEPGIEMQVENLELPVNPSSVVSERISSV
Description: Binding affinity at cloned human 5HT2C receptor, [3H]Mesulergine.

For test [2], the target named is T2, D2 receptor. The test can be described thus: Agonist potency by [3H]thymidine incorporation (mitogenesis), D2. Conditions: [3H]thymidine incorporation; for Emax: >80% full agonist, read-out: D2 % Maxm Stim. It counts as cell-based. As for the experimental part: (§3) Potential as domaminergenic agonists was assayed by ^3H-thymidine incorporation by standard techniques.
The EC50 values thus indicate intrinsic activities or functional activities of these compounds. The value of % maximum stimulation indicates whether a compound is a partial agonist or full agonist. Generally, a value greater than 80% is considered as a full agonist and anything less than 80% is considered as a partial agonist.

For a further test, the target named is T5, D2L receptor (Homo sapiens, UniProt P14416).
T5 construct: expressed in transfected cells; host or cells: HEK cells
Description: Inhibition constants for binding to cloned D2L receptor expressed in HEK cells, [3H]spiperone. As for the experimental part:
Inhibition constants for binding to cloned D2L and D3 receptors expressed in HEK cells by displacing [^3H] spiperone were measured for several compounds.

The target of test [3] is T6, D4 receptor (Homo sapiens, UniProt P21917).
T6 sequence (P21917 1-419): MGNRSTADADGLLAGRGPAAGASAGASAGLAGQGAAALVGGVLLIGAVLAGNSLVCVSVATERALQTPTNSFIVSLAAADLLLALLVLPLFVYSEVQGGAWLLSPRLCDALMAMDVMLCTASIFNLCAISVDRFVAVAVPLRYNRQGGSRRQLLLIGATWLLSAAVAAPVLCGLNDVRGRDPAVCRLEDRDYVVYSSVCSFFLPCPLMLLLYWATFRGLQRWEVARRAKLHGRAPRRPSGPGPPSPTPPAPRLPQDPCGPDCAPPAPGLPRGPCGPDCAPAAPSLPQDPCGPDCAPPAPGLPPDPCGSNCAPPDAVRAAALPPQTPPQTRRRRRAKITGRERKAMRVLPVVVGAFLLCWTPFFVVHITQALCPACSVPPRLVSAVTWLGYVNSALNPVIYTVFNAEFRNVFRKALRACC
Description: Agonist potency by [3H]thymidine incorporation (mitogenesis), D4. Set-up: expressed in transfected cells. Conditions: for EC50 / D4 % Maxm Stim: [3H]thymidine incorporation; for D4 % Maxm Stim: >80% full agonist. It counts as cell-based. As for the experimental part: as §3
The mitogenesis study results presented in Table 7 assay the ability of these ligands to act as agonists or antagonists. The EC50 values thus indicate intrinsic activities or functional activities of these compounds. The value of % maximum stimulation indicates whether a compound is a partial agonist or full agonist. Generally, a value greater than 80% is considered as a full agonist and anything less than 80% is considered as a partial agonist. A compound will be considered antagonist if it produces a negative result (no [3H]thymidine incorporation) in the assay. All the compounds reported in Table 7 are either full agonists or partial agonists.

In a further test the target is D3 receptor (Homo sapiens, UniProt P35462). Description: Binding affinity at cloned human D3 receptor, [3H]YM-09151-2 (CHOp-D3 cells). Set-up: expressed in transfected cells; host or cells: CHOp-D3 cells. Conditions: for Ki: cloned human D3; for D2/D3: ratio of Ki D2 to Ki D3, [3H]YM-09151-2 protocol of Table 4. As for the experimental part:
as §1, §2

Test [4] deals with T6, D4 receptor. The test can be described thus: Binding affinity at cloned human D4 receptor, [3H]YM-09151-2 (CHO D4.4 cells). The arrangement: expressed in transfected cells; host or cells: CHO D4.4 cells. The conditions noted are these: for Ki: cloned human D4. As for the experimental part: CHO D4.4 cells (human receptors) are grown to confluence in D4 Puromycin medium containing 2 μg/ml puromycin, 5% fetal calf serum and 5 supplemented calf serum and 0.5% pen-strep. The cells are harvested as described for D2 and D3 cells and used at a concentration of 0.15 mg protein/well in the [^3H]YM-09151-2 binding assay.

T3 sequence (P28223 whole entry): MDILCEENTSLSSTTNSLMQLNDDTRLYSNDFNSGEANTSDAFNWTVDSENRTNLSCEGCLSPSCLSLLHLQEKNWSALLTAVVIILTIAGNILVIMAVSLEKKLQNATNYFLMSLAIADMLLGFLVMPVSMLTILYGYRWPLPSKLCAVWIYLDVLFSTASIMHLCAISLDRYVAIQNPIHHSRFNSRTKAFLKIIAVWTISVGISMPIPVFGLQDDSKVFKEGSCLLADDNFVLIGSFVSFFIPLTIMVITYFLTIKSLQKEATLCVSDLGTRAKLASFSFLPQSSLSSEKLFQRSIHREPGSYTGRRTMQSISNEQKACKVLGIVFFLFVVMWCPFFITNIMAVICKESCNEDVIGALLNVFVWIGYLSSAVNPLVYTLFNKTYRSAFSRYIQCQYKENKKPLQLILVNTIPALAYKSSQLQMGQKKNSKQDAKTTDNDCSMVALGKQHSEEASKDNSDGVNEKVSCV
Chain of D3 receptor (P35462 whole entry): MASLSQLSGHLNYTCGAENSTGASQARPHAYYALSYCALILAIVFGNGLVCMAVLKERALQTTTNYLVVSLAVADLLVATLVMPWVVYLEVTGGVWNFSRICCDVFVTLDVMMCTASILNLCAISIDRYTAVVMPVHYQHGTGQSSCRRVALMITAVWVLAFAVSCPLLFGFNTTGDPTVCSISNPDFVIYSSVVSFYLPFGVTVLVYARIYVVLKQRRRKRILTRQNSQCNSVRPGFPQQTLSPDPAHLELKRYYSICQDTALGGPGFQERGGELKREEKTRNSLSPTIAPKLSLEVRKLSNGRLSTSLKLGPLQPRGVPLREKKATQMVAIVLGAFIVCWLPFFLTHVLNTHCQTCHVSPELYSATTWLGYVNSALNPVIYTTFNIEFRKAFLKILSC
T5 sequence (P14416 whole entry): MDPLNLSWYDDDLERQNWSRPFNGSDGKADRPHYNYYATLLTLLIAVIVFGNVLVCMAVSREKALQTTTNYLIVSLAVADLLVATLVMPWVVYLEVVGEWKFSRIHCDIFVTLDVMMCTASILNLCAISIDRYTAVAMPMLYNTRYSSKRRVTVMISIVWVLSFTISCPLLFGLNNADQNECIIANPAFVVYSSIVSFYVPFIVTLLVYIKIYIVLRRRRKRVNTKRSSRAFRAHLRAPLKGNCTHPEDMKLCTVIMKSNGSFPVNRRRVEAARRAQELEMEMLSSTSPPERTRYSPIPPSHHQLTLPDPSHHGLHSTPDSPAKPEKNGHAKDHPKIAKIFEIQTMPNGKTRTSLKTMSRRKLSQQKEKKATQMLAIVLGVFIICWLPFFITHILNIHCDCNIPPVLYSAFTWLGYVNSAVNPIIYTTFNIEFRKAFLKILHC
T2 sequence (P14416 whole entry): as above
T1 sequence (P21728 whole entry): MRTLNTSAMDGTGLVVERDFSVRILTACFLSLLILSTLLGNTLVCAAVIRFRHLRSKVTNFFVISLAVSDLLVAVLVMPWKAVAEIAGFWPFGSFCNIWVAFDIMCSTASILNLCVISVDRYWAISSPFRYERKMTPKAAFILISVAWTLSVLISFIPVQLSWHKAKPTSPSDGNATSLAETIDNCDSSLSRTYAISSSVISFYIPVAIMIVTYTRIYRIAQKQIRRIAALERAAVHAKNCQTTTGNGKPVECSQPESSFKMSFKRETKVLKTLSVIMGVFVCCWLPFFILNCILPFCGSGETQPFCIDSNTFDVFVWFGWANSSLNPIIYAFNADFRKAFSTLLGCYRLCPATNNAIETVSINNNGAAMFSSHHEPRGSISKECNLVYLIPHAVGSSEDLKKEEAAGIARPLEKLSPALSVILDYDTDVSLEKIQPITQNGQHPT

With `CCCN(CCCCN1CCN(c2ccccc2)CC1)C1CCc2ccc(O)cc2C1` (stereo not shown) [Compound 15b, 7-Hydroxyl-2-[N-propyl-(N-(4-phenylpiperazin-1-yl)-butyl)amino]tetralin], the Ki on D1 receptor was 6120 ± 933 nM; on D2 receptor [1] it was 3.37 ± 0.78 nM; at 5HT2A receptor it was 1780 ± 614 nM; at 5HT2C receptor, over 10000 nM; on D2L receptor it was 114 ± 8 nM; on D3 receptor, 3.47 ± 0.08 nM. Affinity on D4 receptor [4] was put at a Ki of 25.7 ± 25.7 nM. Moreover, the 50% effective concentration (EC50) was 3.21 ± 0.46 nM on D2 receptor [2] and 22.5 ± 11 nM on D4 receptor [3]. Besides, the Emax at D2 receptor [2] was determined as 121 ± 26.1%. The “D4 % Maxm Stim” value at D4 receptor [3] is listed as 102.81 ± 20.21%. Further, the “agonist character at the D4 receptor” value at D4 receptor [3] (functional assay) is “full agonists”. On D3 receptor, the D2/D3 came out at 1. Also, at D4 receptor [4], the “affinity at the D4 receptor” value is “good affinity”.

Consider `O=C(NCCCCN(CCCCN1CCN(c2ccccc2)CC1)C1CCc2ccc(O)cc2C1)c1ccccc1` (stereo not shown) [Compound 10a, 7-Hydroxyl-2-[N-(4-benzoylaminobutyl)-(N-(4-phenylpiperazin-1-yl)-butyl)amino]tetralin], for which the Ki at D1 receptor is 3730 ± 272 nM; on D2 receptor [1], 119 ± 1.45 nM; at 5HT2A receptor, 1230 ± 217 nM; at 5HT2C receptor, over 10000 nM; on D2L receptor, 782 ± 42 nM; at D3 receptor, 313 ± 6.47 nM. Further, the Ki on D4 receptor [4] was found to be 137 ± 10.2 nM. The EC50 on D2 receptor [2] came to 115 ± 20.2 nM; on D4 receptor [3], 32.2 ± 2.51 nM. For the same compound, the Emax on D2 receptor [2] was 44.9 ± 0.84%. For the same compound, the “D4 % Maxm Stim” value on D4 receptor [3] worked out at 51.08 ± 1.72%. Besides, the D2/D3 on D3 receptor turned out to be 0.38.

Regarding `N#CCCCN(CCCCN1CCN(c2ccccc2)CC1)C1CCc2ccc(O)cc2C1` (stereo not shown) [Compound 8, 7-Hydroxy-2-[N-butyonitrile-(N-(4-phenylpiperazin-1-yl)-butyl)amino]tetralin], the Ki on D1 receptor is 3218 ± 7.77 nM; on D2 receptor [1] it was 89.8 ± 32.5 nM; on 5HT2A receptor it was 701 ± 16.8 nM; on 5HT2C receptor, over 10000 nM; on D2L receptor, 622 ± 102 nM; at D3 receptor, 75.8 ± 6.29 nM. The compound also came in with a Ki on D4 receptor [4] of 142 ± 6.5 nM. In addition, the EC50 amounted to 74.5 ± 32.9 nM on D2 receptor [2] and 54.8 ± 18.6 nM at D4 receptor [3]. In addition, the Emax at D2 receptor [2] came out at 54.1 ± 4.82%. Besides, the D2/D3 on D3 receptor was 1.18.

For the compound `O=C(NCCN(CCCCN1CCN(c2ccccc2)CC1)C1CCc2ccc(O)cc2C1)c1ccccc1` (stereo not shown) [Compound 10b, 7-Hydroxy-2-[N-(2-benzoylamino)ethyl-(N-(4-phenylpiperazin-1-yl)-butyl)amino]tetralin], the inhibition constant Ki on D1 receptor was 2950 ± 238 nM; at D2 receptor [1], 111 ± 32.2 nM; at 5HT2A receptor it was 287 ± 50.2 nM; at 5HT2C receptor, over 10000 nM; at D2L receptor, 354 ± 2 nM; on D3 receptor it was 84.6 ± 1.55 nM. Moreover, the Ki on D4 receptor [4] worked out at 35.6 ± 1.42 nM. The EC50 on D2 receptor [2] was 97.2 ± 47.7 nM; on D4 receptor [3], 26.7 ± 10.6 nM. Further, the Emax on D2 receptor [2] came to 27 ± 5.54%. At D4 receptor [3], the “D4 % Maxm Stim” value is 71.36 ± 10.17%. Moreover, on D3 receptor, the D2/D3 came out at 1.30.
